# pIC50: −log10 of the molar value. Read-outs that look alike come from different tables or passages of the source.
# Legend:
# CDK1 = CDK1 (Homo sapiens, UniProt P06493); assay: CDK1 kinase inhibitory activity assay and selectivity over CDK12; assay type: biochemical; conditions: for pIC50: kinase reaction 120 minutes, 33P-gamma-ATP
# Description: Before initiating the CDK1 and CDK2 kinase reactions, each Example compound was dissolved and diluted in DMSO as a solvent across 9 concentration ranges at room temperature. The diluted solutions were then incubated with a mixture of kinase and substrate (and cofactors, if required) for 20 minutes. Next, radioisotope-labeled ATP (^33P-gamma-ATP) was added to proceed with the kinase reaction at room temperature for 120 minutes. After the reaction was completed, the reaction mixture was transferred to a filter paper that binds the radioisotope-labeled catalytic product (^33P-substrate). Unreacted ^33P-ATP was removed by washing with 0.75 % phosphoric acid, and then the radioactive phosphorylated substrate remaining on the filter paper was measured. Kinase activity data were expressed as a percentage of the kinase activity remaining in the test sample compared to a DMSO control group. The half-maximal inhibitory concentration (IC50) for each kinase was calculated using Prism software.
# The CDK1 and CDK2 kinase inhibitory activities of the Example compounds measured by the above method were evaluated according to the following criteria, and the results are presented in Table 14.
# CDK13 = CDK13 (Homo sapiens, UniProt Q14004); assay: CDK13 kinase inhibitory activity assay (33P-ATP filter binding); assay type: biochemical
# In short: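 Radiometric filter-binding read-out: after 20 min compound–enzyme/substrate pre-incubation across 9 concentrations, reaction started with ^33P-γ-ATP and run 120 min at room temperature. Filter-bound ^33P-substrate measured after 0.75 % phosphoric acid washes; remaining activity versus DMSO gives IC50.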
# MKN45 cells = assay: Gastric cancer cell proliferation inhibitory activity (CellTiter Glo), MKN45; assay type: cell-based; conditions: Homo sapiens, MKN-45, 72 hours, relative IC50
# Description: Experiments were performed using four types of gastric cancer cell lines (AGS, SNU-1, KATO-III, and MKN45) to measure the cell proliferation inhibitory ability of each Example compound. For AGS cells, 90 µL of cell suspension was dispensed into a 96-well plate using F-12K (Gibco) medium containing 10 % FBS, followed by incubation in a cell incubator at 37 °C and 5 % CO2. For SNU-1 and MKN45 cells, 90 µL of cell suspension was dispensed into a 96-well plate using RPMI1640 (Gibco) medium containing 10 % FBS, followed by incubation in a cell incubator at 37 °C and 5 % CO2. For KATO-III cells, 90 uL of cell suspension was dispensed into a 96-well plate using IMDM (Gibco) medium containing 10 % FBS, followed by incubation in a cell incubator at 37 °C and 5 % CO2. The next day, each Example compound dissolved and diluted in DMSO across 9 concentration ranges and a DMSO control group were added at 10 µL to each 96-well plate and treated for 72 hours. After completion of the compound treatment, 100 µL of CellTiter Glo (Promega) reagent was added to each well of the 96-well plate, followed by shaking for 10 minutes and standing at room temperature for 10 minutes. Luminescence signals were measured after inserting the 96-well plate into an Envision plate reader (PerkinElmer). Relative IC50 values were calculated by fitting a dose-response curve using XLfit (IDBS Ltd) software.
# The gastric cancer cell proliferation inhibitory activities of the Example compounds measured by the method described above were evaluated according to the following criteria, and the results are presented in Table 16.
# BT-20 cells = assay: Breast cancer cell proliferation inhibitory activity, BT-20; assay type: cell-based; conditions: Homo sapiens, 72 hours, CellTiter Glo, relative IC50
# Description: (§1) Experiments were conducted using three types of breast cancer cell lines to measure the cell proliferation inhibitory ability of each Example compound. For HCC70 cells, 100 µL of cell suspension was dispensed into a 96-well plate using RPMI1640 (Invitrogen) medium containing 10 % FBS, followed by incubation in a cell incubator at 37 °C and 5 % CO2. For BT-20 cells, 100 µL of cell suspension was dispensed into a 96-well plate using EMEM (Invitrogen) medium containing 10 % FBS, followed by incubation in a cell incubator at 37 °C and 5 % CO2. For MDA-MB-436 cells, 100 µL of cell suspension was dispensed into a 96-well plate using L-15 (Invitrogen) medium containing 10 % FBS, followed by incubation in a cell incubator at 37 °C and 0 % CO2. The next day, each Example compound dissolved and diluted in DMSO across 9 concentration ranges and a DMSO control group were treated on the cells for 72 hours. After completion of the compound treatment, 100 µL of CellTiter Glo (Promega) reagent was added to each well of the 96-wellplate, followed by shaking for 10 minutes and standing at room temperature for 10 minutes. After inserting the 96-well plate into an Envision plate reader (PerkinElmer), luminescence signals were measured. Relative IC50 values were calculated by fitting a dose-response curve using XL fit (IDBS Ltd) software.
# (§2) The breast cancer cell proliferation inhibitory activities of the Example compounds measured by the method described above were evaluated according to the following criteria, and the results are presented in Table 15.
# MDA-MB-436 cells = assay: Breast cancer cell proliferation inhibitory activity, MDA-MB-436; assay type: cell-based; conditions: Homo sapiens, 72 hours, CellTiter Glo, relative IC50
# Description: as §1, §2
# HCC70 cells = assay: Breast cancer cell proliferation inhibitory activity, HCC70; assay type: cell-based; conditions: Homo sapiens, 72 hours, CellTiter Glo, relative IC50
# Description: as §1, §2
# [1] = kinase reaction 120 minutes, 33P-gamma-ATP, read-out: CDK13 IC50
# CDK1, sequence (P06493 whole entry, species assumed): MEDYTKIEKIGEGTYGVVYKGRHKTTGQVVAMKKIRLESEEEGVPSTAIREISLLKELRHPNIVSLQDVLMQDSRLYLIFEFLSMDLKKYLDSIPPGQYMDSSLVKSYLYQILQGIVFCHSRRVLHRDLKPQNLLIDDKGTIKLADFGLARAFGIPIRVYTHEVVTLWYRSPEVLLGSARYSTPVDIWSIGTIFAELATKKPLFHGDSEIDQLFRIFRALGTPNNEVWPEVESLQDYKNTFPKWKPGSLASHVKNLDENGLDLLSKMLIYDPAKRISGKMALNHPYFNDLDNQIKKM
# CDK1, sequence (P14635 whole entry partner, species assumed): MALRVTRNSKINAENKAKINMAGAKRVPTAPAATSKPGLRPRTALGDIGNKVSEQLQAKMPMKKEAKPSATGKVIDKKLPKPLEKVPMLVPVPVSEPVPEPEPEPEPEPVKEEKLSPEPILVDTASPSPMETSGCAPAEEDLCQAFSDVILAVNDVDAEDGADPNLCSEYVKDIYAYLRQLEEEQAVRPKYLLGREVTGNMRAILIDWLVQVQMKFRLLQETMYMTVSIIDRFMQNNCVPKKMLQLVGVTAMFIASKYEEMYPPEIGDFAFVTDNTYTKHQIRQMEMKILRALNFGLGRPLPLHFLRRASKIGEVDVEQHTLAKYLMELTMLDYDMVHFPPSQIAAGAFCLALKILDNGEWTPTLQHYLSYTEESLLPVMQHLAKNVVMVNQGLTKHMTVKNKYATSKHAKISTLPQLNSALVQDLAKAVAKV
# CDK13, sequence (Q14004 whole entry, species assumed): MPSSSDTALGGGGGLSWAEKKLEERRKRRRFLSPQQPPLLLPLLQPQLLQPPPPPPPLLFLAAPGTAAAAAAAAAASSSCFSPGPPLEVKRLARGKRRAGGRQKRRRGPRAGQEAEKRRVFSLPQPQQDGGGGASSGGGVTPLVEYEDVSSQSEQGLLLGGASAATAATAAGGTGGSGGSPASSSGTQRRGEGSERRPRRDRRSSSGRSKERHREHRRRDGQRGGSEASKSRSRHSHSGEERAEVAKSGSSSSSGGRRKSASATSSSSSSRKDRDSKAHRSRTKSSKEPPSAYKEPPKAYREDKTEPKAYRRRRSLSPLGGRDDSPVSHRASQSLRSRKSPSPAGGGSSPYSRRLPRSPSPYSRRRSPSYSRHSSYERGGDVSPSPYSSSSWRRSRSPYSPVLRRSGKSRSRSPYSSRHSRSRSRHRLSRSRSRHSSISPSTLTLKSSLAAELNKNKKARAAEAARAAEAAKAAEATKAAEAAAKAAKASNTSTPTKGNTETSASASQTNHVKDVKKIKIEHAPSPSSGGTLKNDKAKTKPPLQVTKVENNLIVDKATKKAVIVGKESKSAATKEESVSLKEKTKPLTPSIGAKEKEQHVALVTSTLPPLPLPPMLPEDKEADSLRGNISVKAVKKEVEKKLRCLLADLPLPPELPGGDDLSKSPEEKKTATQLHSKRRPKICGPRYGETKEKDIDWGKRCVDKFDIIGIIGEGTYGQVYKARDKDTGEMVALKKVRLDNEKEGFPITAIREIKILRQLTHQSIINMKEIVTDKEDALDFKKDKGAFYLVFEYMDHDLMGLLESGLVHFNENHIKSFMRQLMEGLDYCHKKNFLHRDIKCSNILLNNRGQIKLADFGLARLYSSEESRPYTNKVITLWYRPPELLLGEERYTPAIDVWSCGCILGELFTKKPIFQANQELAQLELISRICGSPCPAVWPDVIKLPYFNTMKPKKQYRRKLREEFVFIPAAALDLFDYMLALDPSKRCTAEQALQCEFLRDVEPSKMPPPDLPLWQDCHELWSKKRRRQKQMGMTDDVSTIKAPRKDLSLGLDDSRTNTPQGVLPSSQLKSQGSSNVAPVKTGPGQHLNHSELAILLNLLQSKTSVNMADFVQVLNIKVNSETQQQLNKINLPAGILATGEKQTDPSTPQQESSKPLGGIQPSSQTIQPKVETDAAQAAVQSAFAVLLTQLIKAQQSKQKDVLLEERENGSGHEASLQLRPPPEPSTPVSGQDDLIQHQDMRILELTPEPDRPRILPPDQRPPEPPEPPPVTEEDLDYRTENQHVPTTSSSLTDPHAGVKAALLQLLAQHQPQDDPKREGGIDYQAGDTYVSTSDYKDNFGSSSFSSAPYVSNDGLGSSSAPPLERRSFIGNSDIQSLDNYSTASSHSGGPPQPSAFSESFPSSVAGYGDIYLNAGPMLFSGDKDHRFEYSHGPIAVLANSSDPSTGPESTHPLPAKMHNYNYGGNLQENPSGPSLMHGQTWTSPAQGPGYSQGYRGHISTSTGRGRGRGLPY
# CDK13, sequence (O75909 whole entry partner, species assumed): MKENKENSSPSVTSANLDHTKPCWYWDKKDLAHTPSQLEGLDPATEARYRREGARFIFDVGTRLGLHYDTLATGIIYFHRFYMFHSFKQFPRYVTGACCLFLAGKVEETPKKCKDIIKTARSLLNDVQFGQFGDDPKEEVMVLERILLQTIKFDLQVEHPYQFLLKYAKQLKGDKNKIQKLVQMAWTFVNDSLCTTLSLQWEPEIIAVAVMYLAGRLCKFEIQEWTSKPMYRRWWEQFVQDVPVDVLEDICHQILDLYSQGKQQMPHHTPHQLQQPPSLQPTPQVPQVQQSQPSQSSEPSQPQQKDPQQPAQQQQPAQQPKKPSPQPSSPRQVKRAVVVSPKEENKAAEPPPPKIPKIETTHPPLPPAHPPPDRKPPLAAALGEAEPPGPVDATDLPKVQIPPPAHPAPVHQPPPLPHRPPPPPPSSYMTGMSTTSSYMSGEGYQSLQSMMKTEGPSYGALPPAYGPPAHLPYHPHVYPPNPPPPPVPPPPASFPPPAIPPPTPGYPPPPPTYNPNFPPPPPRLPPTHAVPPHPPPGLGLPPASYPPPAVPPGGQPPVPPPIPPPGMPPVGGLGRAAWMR
pIC50 (MKN45 cells),pIC50 (BT-20 cells),pIC50 (MDA-MB-436 cells),CDK1/CDK12 (CDK1; ratio of CDK1 IC50 to CDK12 IC50),pIC50 (CDK13),SMILES,pIC50 (CDK1),pIC50 (CDK13; [1]),pIC50 (HCC70 cells)
–,–,–,–,–,Nc1ncc(-c2cc(NCc3nc4cc(Cl)c(Cl)cc4[nH]3)c3ncc(C(F)(F)F)n3n2)cn1 [Example 40],< 6.00,> 7.00,–
≥ 6.70,≥ 7.30,≥ 7.30,A (CDK1/CDK12 or CDK2/CDK12 > 500-fold),> 7.00,"CN1CCN(c2cc(NCc3nc4ccc(F)c(F)c4[nH]3)c3ncc(C(F)(F)F)n3n2)CC1 [Example 8, N-((6,7-difluoro-1H-benzo[d]imidazol-2-yl)methyl)-6-(4-methylpiperazin-1-yl)-3-(trifluoromethyl)imidazo[1,2-b]pyridazin-8-amine]",< 6.00,–,≥ 7.30
≥ 6.70,≥ 7.30,≥ 7.30,–,–,"CN1CCN(c2cc(NCc3nc4cc(Cl)c(Cl)cc4[nH]3)c3ncc(C(F)(F)F)n3n2)CC1 [Example 29, N-((5,6-dichloro-1H-benzo[d]imidazol-2-yl)methyl)-6-(4-methylpiperazin-1-yl)-3-(trifluoromethyl)imidazo[1,2-b]pyridazin-8-amine]",< 6.00,> 7.00,≥ 7.30

SMILES,pIC50 (MKN45 cells),pIC50 (BT-20 cells),pIC50 (MDA-MB-436 cells),CDK1/CDK12 (CDK1; ratio of CDK1 IC50 to CDK12 IC50),pIC50 (CDK13),pIC50 (CDK1),pIC50 (CDK13; [1]),pIC50 (HCC70 cells)
"N#CC1CN(c2cc(NCc3nc4cc(Cl)c(Cl)cc4[nH]3)c3ncc(C(F)(F)F)n3n2)C1 [Example 30, 1-(8-(((5,6-dichloro-1H-benzol[d]imidazol-2-yl)methyl)amino)-3-(trifluoromethyl)imidazo[1,2-b]pyridazin-6-yl)azetidine-3-carbonitrile]",≥ 6.70,≥ 7.30,≥ 7.30,–,–,< 6.00,> 7.00,≥ 7.30
